{"source": "patent US7399744B2", "about": "“Methods for affecting body composition” (Amylin Pharmaceuticals, Inc., priority 2004, dated 2008)", "key": {"amylin receptors": {"molecular_target": "T1, amylin receptors (Rattus norvegicus, UniProt P32214+Q9JJ74)", "T1 construct": "This basal forebrain tissue, containing the nucleus accumbens and surrounding regions, was weighed and homogenized; from tissue; host or cells: rat basal forebrain (nucleus accumbens and surrounding regions) membranes", "T1 sequence (P32214 25-516)": "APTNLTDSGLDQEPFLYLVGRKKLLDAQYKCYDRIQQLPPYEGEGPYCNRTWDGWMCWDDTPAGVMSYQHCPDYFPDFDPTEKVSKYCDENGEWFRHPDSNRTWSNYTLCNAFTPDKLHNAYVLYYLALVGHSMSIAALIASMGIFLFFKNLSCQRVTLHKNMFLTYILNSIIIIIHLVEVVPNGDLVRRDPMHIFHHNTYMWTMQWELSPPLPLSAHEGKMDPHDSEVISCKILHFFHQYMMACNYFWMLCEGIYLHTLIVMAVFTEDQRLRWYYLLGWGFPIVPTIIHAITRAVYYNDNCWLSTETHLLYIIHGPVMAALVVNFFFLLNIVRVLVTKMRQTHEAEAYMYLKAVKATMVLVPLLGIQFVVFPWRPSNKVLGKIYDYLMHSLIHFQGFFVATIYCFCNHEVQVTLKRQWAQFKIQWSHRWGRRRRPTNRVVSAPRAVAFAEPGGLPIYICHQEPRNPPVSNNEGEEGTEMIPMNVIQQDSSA", "T1 sequence (Q9JJ74 27-148)": "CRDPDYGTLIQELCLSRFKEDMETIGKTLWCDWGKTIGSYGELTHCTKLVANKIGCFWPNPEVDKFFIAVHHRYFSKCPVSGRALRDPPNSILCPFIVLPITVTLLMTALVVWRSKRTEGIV", "assay": "Receptor binding assay (competition with 125I Bolton Hunter rat amylin, basal forebrain membranes)", "text": "A preferred source of the membrane preparations used in the assay is the basal forebrain which comprises membranes from the nucleus accumbens and surrounding regions.\nUnlabeled peptides were obtained from BACHEM Inc. (Torrance, Calif.) and Peninsula Laboratories (Belmont, Calif.).\nMale Sprague-Dawley rats (200-250) grams were sacrificed by decapitation. Brains were removed to cold phosphate-buffered saline (PBS). From the ventral surface, cuts were made rostral to the hypothalamus, bounded laterally by the olfactory tracts and extending at a 45° angle medially from these tracts. This basal forebrain tissue, containing the nucleus accumbens and surrounding regions, was weighed and homogenized in ice-cold 20 mM HEPES buffer (20 mM HEPES acid, pH adjusted to 7.4 with NaOH at 23° C.). […] The final membrane pellet was resuspended in 20 mM HEPES buffer containing 0.2 mM phenylmethylsulfonyl fluoride (PMSF).\nSolutions were incubated for 60 minutes at 23° C. […] Filters were washed immediately before filtration with 5 ml cold PBS, and immediately after filtration with 15 ml cold PBS."}, "[1]": {"system": "insulin-stimulated glycogen synthesis in soleus muscle", "assay": "Soleus muscle assay", "format": "cell-based", "settings": "rat soleus muscle, inhibition of glucose incorporation into glycogen", "experimental": "Concentrations of peptide dissolved in carrier-free buffers are determined by quantitative amino acid analysis, as described therein. The ability of compounds to act as agonists in this assay is determined by measuring EC50 values. […] Similar results were obtained with other agonist compounds listed above."}}, "note": "Bridge positions count the residues as written; N and C are the ends. Peptide text beside a SMILES is read from it."}
{"smiles": "CC[C@H](C)[C@H](NC(=O)[C@H](C)NC(=O)CNC(=O)[C@H](Cc1ccccc1)NC(=O)[C@H](CC(N)=O)NC(=O)[C@H](CC(N)=O)NC(=O)[C@H](CO)NC(=O)[C@H](CO)NC(=O)[C@H](Cc1c[nH]cn1)NC(=O)[C@@H](NC(=O)[C@H](CC(C)C)NC(=O)[C@H](Cc1ccccc1)NC(=O)[C@H](CC(N)=O)NC(=O)[C@H](C)NC(=O)[C@H](CC(C)C)NC(=O)[C@H](CCCNC(=N)N)NC(=O)[C@H](CCC(N)=O)NC(=O)[C@@H](NC(=O)[C@H](C)NC(=O)[C@@H]1CCCCNC(=O)C[C@H](NC(=O)[C@@H](N)CCCCN)C(=O)N[C@@H](CC(N)=O)C(=O)N[C@@H]([C@@H](C)O)C(=O)N[C@@H](C)C(=O)N[C@@H]([C@@H](C)O)C(=O)N1)[C@@H](C)O)C(C)C)C(=O)N[C@@H](CC(C)C)C(=O)N[C@@H](CO)C(=O)N[C@@H](CO)C(=O)N[C@H](C(=O)N[C@@H](CC(N)=O)C(=O)N[C@H](C(=O)NCC(=O)N[C@@H](CO)C(=O)N[C@@H](CC(N)=O)C(=O)N[C@H](C(=O)N[C@@H](Cc1ccc(O)cc1)C(N)=O)[C@@H](C)O)C(C)C)[C@@H](C)O", "note": "[^2,7Cyclo-[^2Asp,^7Lys]-h-Amylin] (H-KDNTATKATQRLANFLVHSSNNFGAILSSTNVGSNTY-NH2; lactam 2-7; N-terminus and C-terminus assumed)", "values": [{"measurement": "IC50", "setting": "amylin receptors", "result": 0.31, "unit": "nM"}, {"measurement": "EC50", "setting": "[1]", "result": 6.62, "unit": "nM"}]}
